Source: article PMC8018653, “Gender-based differences in brain and plasma pharmacokinetics of letrozole in sprague-dawley rats: Application of physiologically-based pharmacokinetic modeling to gain quantitative insights” (PLoS ONE, 2021)
Several values for one entry are separate records, joined by “and”; a condition that tells them apart may be missing. Equal values may be shown once. Read-outs that look alike come from different tables or passages of the source. Marks after values point to notes of the source that are not given here.

What was measured:
[1] = Single dose plasma pharmacokinetics (4 mg/kg i.p.), NCA; assay type: in vivo, Sprague-Dawley rats; settings: for Cmax / Tmax / AUC(0-t) / half-life: ip; for Cmax / Tmax / CL (systemic clearance), plasma / Half-life t1/2, plasma / AUC 0–12, plasma unbound / AUC 0–72, plasma unbound / Cmax, plasma unbound / AUC(0-t) / half-life: single dose 4 mg/kg i.p.; for Cmax: read-out: Cmax, plasma total; for Tmax: read-out: Tmax, plasma total; for AUC 0–12, plasma unbound / AUC 0–72, plasma unbound / Cmax, plasma unbound: fraction unbound 0.38; for half-life: read-out: Half-life t1/2, plasma (converted)
Description: (§1) Age-matched (7–9 weeks) adult female (201–225 g; N = 10) and male (301–325 g; N = 10) jugular vein cannulated Sprague-Dawley rats (Charles River Laboratories) were used for this study. The experiments were conducted in strict accordance with the University of Cincinnati Institutional Animal Care and Use Committee (UC IACUC)-approved protocol (Protocol Number: 10-11-01-01) and all the studies were performed as per the highest international standards of animal welfare outlined by the NIH’s Guide for the Care and Use of Laboratory Animals. Upon arrival, animals were housed individually under pathogen-free, temperature and humidity-controlled environment on a 12/12 h light/dark cycle and were given access to standard chow and water ad libitum (ad-lib). To maintain the patency of the jugular vein catheters, they were flushed with normal saline and locked with the heparin-dextrose solution every other day.
Within 10 minutes of collection, plasma was separated by centrifugation of the blood samples at 4,000 rpm for 15 min. Microdialysis samples were collected simultaneously through the probes at the same time points from 0–12 hours.
(§2) Letrozole was extracted from the plasma samples using the liquid-liquid extraction technique. Calibration standards were freshly prepared by spiking working letrozole solution into the blank rat plasma to give a concentration curve ranging from 5 to 5000 ng/ml. Briefly, 50 μl of the plasma sample/standard spiked with known letrozole concentration was transferred to a glass tube containing 1 mL of the extraction solvent methyl-tertiary-butyl ether. All the samples were then vortex mixed for 40 sec and centrifuged for 5 min. 800 μl of the supernatant was decanted into a clean test tube and evaporated to dryness using a CentriVap evaporator. The precipitate was reconstituted in 100 μl of the mobile phase and vortex mixed, following which, 50 μl sample volume was injected onto the HPLC system for analysis. The dialysis samples, on the other hand, were injected directly onto HPLC.

[2] = Steady state plasma pharmacokinetics (4 mg/kg i.p. once daily), NCA; assay type: in vivo, Sprague-Dawley rats; settings: for Cmax / Tmax / AUC(0-t): Sprague-Dawley, rat, ip; for Cmax / Tmax / Rac’ (theoretical/predicted accumulation ratio, Eq 2) / AUC(0-t): plasma; for Cmax: read-out: Cmax, plasma total; for Tmax: read-out: Tmax, plasma total; for AUC 0–12, plasma unbound / AUC 0–24, plasma unbound / Cmax, plasma unbound: fraction unbound 0.38; for AUC(0-t): 4 mg/kg
Description: as §1, §2

[3] = In vivo unbound fraction in brain (brain ECF / whole brain tissue homogenate); settings: Sprague-Dawley, rat, ip, healthy and tumor-bearing female rats, 4 mg/kg i.p., ~6 hrs, mean ± SD, read-out: Fraction unbound in brain (fu, brain)
From the text: Simcyp Animal Simulator V17 (Certara Inc.) was employed for developing a bottom-up whole body PBPK model incorporating the specified multi-compartment brain model. Based on its anatomy and physiology, the whole brain is described by three compartments, viz. brain blood, brain mass and cerebrospinal fluid (CSF) as illustrated in Fig 1 (Simcyp® Rat Simulator). For model development, the physiological/ system-specific parameters were inferred from the existing rodent species within the animal simulator while, the key drug- specific parameters used are summarized in Table 1. Briefly, all the physiochemical and binding to blood components (plasma proteins and erythrocytes) parameters of letrozole were derived from expansive literature review. […] Full-PBPK model was employed for drug distribution while the Rodgers and Rowland method or “Method 2”, as defined in Simcyp v17, predicted the volume of distribution (Vss). For the multi-compartment brain model, the passive permeability-surface area product on the BBB (PSB) was determined using the Crone- Renkin Equation [25, 26]: PSB=−Fpfln(1−Kin/Fpf) (3) where, Fpf is the cerebral blood or perfusion flow rate and Kin is the brain uptake clearance. […] The fu, brain for letrozole was experimentally determined in both healthy and tumor-bearing female Sprague-Dawley rats (N = 4/ group).

[4] = set-up: method as in PMID 23712697; settings: in situ mouse brain perfusion; cited from earlier work
[5] = system: P-glycoprotein (P-gp); settings: cited from earlier work
[6] = Steady state brain ECF pharmacokinetics by intracerebral microdialysis; settings: for Kp uu at 264 h / Kp uu / Kp uu at 120 h: intraperitoneal; for Kp uu at 264 h: 11 days; for Kp uu: Kpuu, range over single dose and steady state (Cmax and AUC0-12); for Kp uu at 120 h: 5 days
Description: The average in vitro relative recovery of letrozole was determined at a flow rate of 2.0 μ1/min at 35°C.
Microdialysis probes were surgically implanted in jugular vein cannulated rats under anesthesia (ketamine/ xylazine 70/ 6 mg/kg i.p., Henry Schein, NY) one day prior to the experiment. Buprenorphine (Buprenex®, Henry Schein, NY) was administered for perioperative analgesia. The probe was inserted into the striatum with the following tip coordinates: A/P, 1.2 mm, L, 3.1 mm, and D/V −7.8 mm, according to the stereotaxic atlas of Paxinos and Watson [21]. The active portion of the membrane for the probes was 4.5 mm. Following implantation, the probes were connected to an infusion pump set to deliver modified Dulbecco’s phosphate buffered saline containing 1.2 mm CaCl2 and 5 mM glucose at a flow rate of 1 μl/min overnight.
To establish the steady state, letrozole was administered via the intraperitoneal route at a dose of 4mg/kg o.d for 11 days (female rats) and 5 days (male rats) based on the previously published data and our preliminary experiments. On the day of the experiment (last day of dosing), blood and dialysis samples were collected concurrently as described above at the following time points- pre-dose, 1, 2, 4, 6, 8 and12 h post administration. An additional 24 hr time point was included in the plasma sample collection and all the samples were stored at -80°C until analyzed.
Three sets of calibration plots were constructed for method validation.
Non-compartmental analysis (NCA) was performed using Phoenix WinNonlin® software (version 6.2.1, Pharsight, St. Louis, MO, USA) and the PK parameters determined included peak concentration (Cmax), time to reach peak concentration (Tmax), area under the concentration-time curve between time zero to the last observed concentration time point (AUC0- t) and the elimination half-life (t1/2). Actual sampling times were employed for calculations except for the pre-dose times, which were kept as zero. Since the blood sampling period spanned less than 4.5 half-lives in female rats, plasma AUC0-∞ values could not be determined reliably. Consequently, we were constrained to reporting AUC0-t values for letrozole in this study which was calculated using the linear trapezoidal method. For consistency, only AUC0-t values were reported for male rats as well. Cmax and Tmax values were obtained directly from the concentration-time data. […] Brain ECF concentrations were time-averaged over the collection interval and were corrected for the observed relative recovery. The brain-to-plasma unbound partition coefficients (Kpuu) were calculated as a ratio of the Cmax or AUC0-12 of letrozole levels in the brain ECF to corresponding plasma Cmax and AUC values corrected for plasma protein binding.

[7] = Sprague-Dawley, rat, plasma, female rats
[8] = Sprague-Dawley, rat, plasma, male rats
[9] = female rats, steady state, 4 mg/kg i.p. daily for 11 days
[10] = male rats, steady state, 4 mg/kg i.p. daily for 5 days
[11] = female rats, steady state, 11 days
[12] = male rats, steady state, 5 days

**Q.** Which results are given for `N#Cc1ccc(C(c2ccc(C#N)cc2)n2cncn2)cc1` [letrozole]?
**A.** clearance ([1]; Sprague-Dawley, rat, plasma, intraperitoneal, 4 mg/kg, female rats, read-out: clearance observed in this study): ~0.25 mL/min; Cmax [1, 7]: 1200 ng/mL; Tmax [1, 7]: 8.5 h; Cmax [1, 8]: 1060 ng/mL; Tmax [1, 8]: 6.5 h; CL (systemic clearance), plasma ([1]; female rats): 57.4 (13.0)*** ml/h/kg; Half-life t1/2, plasma ([1]; female rats, 4 mg/kg): 34.0 (3.6)*** h; AUC 0–12, plasma unbound ([1]; female rats): 4446 (1160) h.ng/ml; AUC 0–72, plasma unbound ([1]; female rats): 20668 (4980) h.ng/ml; Cmax, plasma unbound ([1]; female rats): 456 (60) ng/ml; AUC(0-t) ([1]; female, Sprague-Dawley, rat, plasma, 4 mg/kg, female rats, read-out: AUC 0–12, plasma total): 11700 ng·h/mL; AUC(0-t) ([1]; female, Sprague-Dawley, rat, plasma, 4 mg/kg, female rats, read-out: AUC 0–72, plasma total): 54400 ng·h/mL; half-life ([1]; female, Sprague-Dawley, rat, plasma, 4 mg/kg, female rats): ~34 h; CL (systemic clearance), plasma ([1]; male rats, 4 mg/kg): 145.9 ± 14.0 ml/h/kg and 146 (14.0) ml/h/kg; Half-life t1/2, plasma ([1]; male rats, 4 mg/kg): 9.2 (2.4) h and 9.23 h; AUC 0–12, plasma unbound ([1]; male rats): 4066 (1140) h.ng/ml; AUC 0–72, plasma unbound ([1]; male rats): 9447 (1920) h.ng/ml; Cmax, plasma unbound ([1]; male rats): 403 (136) ng/ml; AUC(0-t) ([1]; male, Sprague-Dawley, rat, plasma, 4 mg/kg, male rats, read-out: AUC 0–12, plasma total): 10700 ng·h/mL; AUC(0-t) ([1]; male, Sprague-Dawley, rat, plasma, 4 mg/kg, male rats, read-out: AUC 0–72, plasma total): 24900 ng·h/mL; half-life ([1]; male, Sprague-Dawley, rat, plasma, 4 mg/kg, male rats): ~9 h; Cmax [2, 9]: 4830 ng/mL; Tmax [2, 9]: 5.3 h; Cmax [2, 10]: 1490 ng/mL; Tmax [2, 10]: 3.3 h; Rac plasma (observed accumulation ratio, AUC0-12) ([2]; female rats, Day 11 / Day 1): 4.2; Rac plasma (observed accumulation ratio, Cmax) ([2]; female rats, Day 11 / Day 1): 4.0; Rac’ (theoretical/predicted accumulation ratio, Eq 2) ([2]; female rats): 2.6; CL (systemic clearance), plasma [2, 9]: 39.3 (5.5)* ml/h/kg; AUC 0–12, plasma unbound [2, 11]: 18734 (2360) h.ng/ml; AUC 0–24, plasma unbound [2, 11]: 39129 (5267) h.ng/ml; Cmax, plasma unbound [2, 11]: 1835 (359) ng/ml; AUC(0-t) ([2]; female, female rats, steady state, 4 mg/kg i.p. daily for 11 days, read-out: AUC 0–12, plasma total): 49300 ng·h/mL; AUC(0-t) ([2]; female, female rats, steady state, 4 mg/kg i.p. daily for 11 days, read-out: AUC 0–24, plasma total): 103000 ng·h/mL; AUC(0-t) ([2]; female, female rats, steady state, 4 mg/kg i.p. daily for 11 days, read-out: plasma AUC 0–24): 103000 ng·h/mL; observed accumulation at steady state (plasma Cmax and AUC0-12) ([2]; male rats): approximately 1.4 fold; Rac plasma (observed accumulation ratio, AUC0-12) ([2]; male rats, Day 5 / Day 1): 1.4; Rac plasma (observed accumulation ratio, Cmax) ([2]; male rats, Day 5 / Day 1): 1.4; Rac’ (theoretical/predicted accumulation ratio, Eq 2) ([2]; male rats): 1.2; CL (systemic clearance), plasma [2, 10]: 200.6 (98) ml/h/kg; AUC 0–12, plasma unbound [2, 12]: 5624 (2430) h.ng/ml; AUC 0–24, plasma unbound [2, 12]: 9424 (4660) h.ng/ml; Cmax, plasma unbound [2, 12]: 566 (209) ng/ml; AUC(0-t) ([2]; male, male rats, steady state, 4 mg/kg i.p. daily for 5 days, read-out: AUC 0–12, plasma total): 14800 ng·h/mL; AUC(0-t) ([2]; male, male rats, steady state, 4 mg/kg i.p. daily for 5 days, read-out: AUC 0–24, plasma total): 24800 ng·h/mL; AUC(0-t) ([2]; male, male rats, steady state, 4 mg/kg i.p. daily for 5 days, read-out: plasma AUC 0–24): 24800 ng·h/mL; systemic clearance, difference between male and female rats ([2]; steady state): approximately 5.0 fold; fraction unbound [3]: 0.58; Kin (brain uptake clearance) [4]: 0.422 ± 0.068 mL/min/g brain; substrate for the efflux transporter P-glycoprotein (P-gp) [5]: not a substrate; accumulation at steady state (brain ECF Cmax and AUC0-12) ([6]; female rats): 3.5 to 4.0 fold; predicted steady state average concentration, brain ECF ([6]; female rats): ~1,000 ng/ml; Rac brain (observed accumulation ratio, AUC0-12) ([6]; female rats, Day 11 / Day 1): 4.2; Rac brain (observed accumulation ratio, Cmax) ([6]; female rats, Day 11 / Day 1): 3.5; Kp uu at 264 h ([6]; female, Sprague-Dawley, rat, brain ECF / unbound plasma, 4 mg/kg, Kpuu (AUC0-12 brain ECF / plasma unbound), female rats, steady state): 1.3; Kp uu at 264 h ([6]; female, Sprague-Dawley, rat, brain ECF / unbound plasma, 4 mg/kg, Kpuu (Cmax brain ECF / plasma unbound), female rats, steady state): 1.2; Kp uu ([6]; female, Sprague-Dawley, rat, brain ECF / unbound plasma, 4 mg/kg, female rats): 1.2 to 1.4; accumulation at steady state (brain ECF Cmax and AUC0-12) ([6]; male rats): 2.0 fold; predicted steady state average concentration, brain ECF ([6]; male rats): ~210 ng/mL; Rac brain (observed accumulation ratio, AUC0-12) ([6]; male rats, Day 5 / Day 1): 2.0; Rac brain (observed accumulation ratio, Cmax) ([6]; male rats, Day 5 / Day 1): 1.9; Cmax, brain ECF ([6]; male rats, steady state, 4 mg/kg i.p. daily for 5 days, 4 mg/kg): 490 ± 240 ng/ml and 490 (240) ng/ml and 490 ng/ml; Kp uu at 120 h ([6]; male, Sprague-Dawley, rat, brain ECF (striatal microdialysate) / unbound plasma, 4 mg/kg, Kpuu (AUC0-12 brain ECF / plasma unbound), male rats, steady state): 0.9; Tmax ([6]; male, Sprague-Dawley, rat, brain ECF (striatal microdialysate), ip, 4 mg/kg): 3.3 h; AUC(0-t) ([6]; male, Sprague-Dawley, rat, brain ECF (striatal microdialysate), ip, 4 mg/kg, AUC 0–12, brain ECF, male rats, steady state, 4 mg/kg i.p. daily for 5 days): 4820 ng·h/mL; AUC(0-t) ([6]; male, Sprague-Dawley, rat, brain ECF (striatal microdialysate), ip, 4 mg/kg, brain ECF AUC 0–12, male rats, steady state, 4 mg/kg i.p. daily for 5 days): 4800 ng·h/mL; Kp uu at 120 h ([6]; male, Sprague-Dawley, rat, brain ECF / unbound plasma, 4 mg/kg, Kpuu (Cmax brain ECF / plasma unbound), male rats, steady state): 0.9; Kp uu ([6]; male, Sprague-Dawley, rat, brain ECF / unbound plasma, 4 mg/kg, male rats): 0.6 to 0.9; brain ECF exposure (Cmax, AUC0-12), higher in female rats ([6]; steady state): 4.7 to 5 fold
